Assay results reported in US9884012B2, “Use of PEDF-derived polypeptides for promoting muscle or tendon regeneration or arteriogenesis” (MacKay Memorial Hospital, priority 2012, dated 2018).
Marks after values point to notes of the source that are not given here.

Tests used:
[1] = system: aortic ring explants; assay: rat aortic ring sprouting assay (ex vivo neovessel sprouting); format: cell-based; settings: day 4, 50 ng/ml PEDF peptide, 50 ng/ml VEGF-A, 20 ng/ml FGF-2, MCDB131, 1% FBS, Matrigel
Method: To further confirm the neovessel development promoted by PEDF peptides, rat aortic ring sprouting assay was performed. Thoracic aortas were removed from euthanized rats and gently stripped of peri-aortic fibroadipose tissue. Aortas were sectioned into about 2-mm length rings, which were then embedded in a growth factor-reduced Matrigel. Gels containing the aortic rings were polymerized in 12-well plates incubated at 37° C. for 30 minutes. 1 ml of MCDB131 medium supplemented with 100 units/ml penicillin and […] streptomycin, 1% FBS, and a supplemental agent (50 ng/ml VEGF-A, 20 ng/ml FGF-2, or 50 ng/ml 29-mer, 24-mer, 20-mer, Mo 29-mer, Mo 20-mer, 25-mer, or 18-mer) were added to the Matrigel-containing explants. The cultures were propagated at 37° C. in a humidified incubator for up to 4 days, with media changes every other day. Neovessel sprouting was assessed until day 4 using an inverted microscope platform (Leica) with bright-field optics; representative photographs were provided in FIG. 6. Quantification of neovessel sprouting was assessed using Image-Pro Plus 6.0 software (Dendrites program). The experiment was repeated in triplicate.

[2] = system: tendon stem cells (TSCs); assay: TSCs proliferation assay (BrdU labeling) in vitro; format: cell-based, New Zealand White rabbits; settings: TSCs passage 4; 50 nM peptide, 5% FBS, 24 hours; BrdU pulse-labeling
Method: New Zealand White rabbits (6-8 months old, 3.0-4.0 kg) were used in this study. Achilles tendons were removed from the rabbits by cutting through their bony attachments. The tendon sheath was stripped away and the core portion of the tendons was minced into small fragments. Each 100 mg of fragment was then digested in a solution containing 3 mg/mL of type I collagenase and 4 mg/mL of dispase in 1 ml Dulbecco's Modified Eagle Medium (DMEM-high glucose) at 37° C. for 2 hours. The resultant cell suspension was centrifuged at 1,000 rpm for 15 minutes to obtain a cell pellet which was then resuspended in a growth medium consisting of DMEM supplemented with 10% heat inactivated fetal bovine serum (FBS), 100 μM 2-mercaptoethanol, and 100 U/ml penicillin and 100 μg/ml streptomycin. For passage, near-confluent cells were harvested with 0.25% trypsin and then 1×10^5 subcultured cells were further cultured in medium.
The TSCs at passage 4 were seeded at gelatin-coated slide in a 6-well plate at a density of 2×10^5 cells per well and cultured in growth medium (DMEM+10% FBS) for 24 hours before being replaced by a basal growth medium with 5% FBS only (control group) or with 5% FBS plus an additional 50 nM of PEDF-derived peptide (i.e., 29-mer, 24-mer, 20-mer, 18-mer, Mo 29-mer, or Mo 20-mer) for 24 hours. For BrdU labeling assay, BrdU (final concentration, 10 μM) was added to the culture for 4 hours. After fixing with 4% paraformaldehyde, cells were exposed to cold methanol for 2 minutes, and then treated with 1 N HCl at RT for 1 hour before performing immunofluorescence. The phenotype of passage 4 TSC was determined by immunocytochemistry of nucleostemin and type I collagen. Almost all of expanded TSCs were nucleostemin and type I collagen-double positive cells.
It has been reported that during the tendon healing process, tendon stem cells (TSCs) would proliferate and differentiate into tenocytes. To investigate whether present PEDF peptides would induce the proliferation of TSCs in vitro, tendons stem cells were isolated and cultured as described in the “Materials and Methods” section. The purity of TSCs was confirmed by a TSC marker, nucleostemin, as well as the expression of type I collagen by TSCs; together, these analyses indicated a TSC purity of near 100% (data not shown). The proliferation of TSCs was confirmed by BrdU pulse-labeling for 2 hours. Quantitative analysis of the level of BrdU-positive cells was performed as described above, and the results were summarized in Table 8.

[3] = system: ischemic hindlimbs; assay: hindlimb ischemia model, laser Doppler perfusion imaging of limb blood perfusion; format: in vivo, C57BL/6 wild-type mice
Method: (§1) 6-week-old female C57BL/6 wild-type mice were anesthetized by an intraperitoneal injection of a mixture of zoletil (6 mg/kg) and xylazine (3 mg/kg). Hair was removed from the hindquarter with a depilating cream. To establish hindlimb ischemia, unilateral external iliac and femoral arteries and veins were ligated, cut, and excised. After surgery, the mice were randomly assigned to several experimental groups (n=6, each group) and treated as follows. In the blank control group, the mice were treated with 50 μl of blank alginate gel, whereas in the bolus control group, the mice received the bolus formulation containing 29-mer. In the PEDF peptide/alginate gel treatment groups, the mice received 50 μl of the sustained-release formulation, which comprised either 29-mer, 24-mer, or 20-mer. Additionally, in a PEDF 18-mer control group, mice were treated with a sustained-release formulation containing a PEDF 18-mer peptide. Treatments were applied by way of a single intramuscular injection to the gracilis muscle immediately after femoral artery and vein excision operation. The incision was closed after the wound was irrigated with sterile saline.
A laser Doppler perfusion imaging (LDPI) analyzer (Moor Instruments, USA) was used to quantify hindlimb blood perfusion before surgery (pre OP), immediately after surgery (post OP), and over time after surgery. To minimize vasoconstriction by anesthetic heat loss, animals were kept on a heating plate at 37° C. for 5 min before measurement. Representative LDPI images illustrating the blood perfusion of ischemic hindlimbs over a time period of 4 weeks were provided in FIG. 2 in which dark blue color represents low blood flow. Blood perfusion is expressed as LDPI index representing the ratio of operated (ischemic) versus non-operated (non-ischemic) limb blood flow of the same mouse, and the results were summarized in FIG. 3 and Table 1 (n 6).

[4] = system: tibialis anterior muscle; assay: hindlimb ischemia model, tibialis anterior muscle necrosis/fibrosis and centrally nucleated fibers; format: in vivo, C57BL/6 wild-type mice; settings: two weeks after surgery, sustained-release formulation (Bolus: bolus 29-mer)
Method: The gracilis, adductor magnus, soleus, and tibialis muscles were fixed in 4% paraformaldehyde, dehydrated with graded ethanol series, and paraffinized. Fixed samples were de-paraffinized in xylene and rehydrated in a graded series of ethanol. Tissues were sliced into 5-μm sections. General histology was performed using H&E dye.
To ascertain the number of centrally nucleated muscle fibers, sections were stained with H&E and then photographed as described above. At least 100 stained fibers were randomly chosen from each photo. Muscle fibers were judged centrally nucleated if one or more nuclei were not located at the periphery of the fiber. The data were expressed as a % of the total number of muscle fibers counted. Results were evaluated from 6 sections per muscle section, and 10 mice at each group.
as §1
In most hindlimb ischemia models, tissue necrosis generally occurs in the muscles below the knee. For example, tibialis anterior muscle, which is distant to the gracilis muscle where the treatment was administered, often undergoes extensive necrosis with regeneration after femoral artery excision. The intensity of Masson's trichrome blue color staining depended on the content of collagen fibers in the investigated tissue, and fibrosis is the result of necrosis. […] Results from representative samples are illustrated in FIGS. 4A and 4B.
Statistical analyses regarding injured area (necrotic area+fibrotic area) and numbers of centrally nucleated fibers were also performed at two weeks after the surgery, and the results were summarized in Table 2. The injured area is expressed as the percent of total stained area (%), and the centrally nucleated fibers is expressed as the total number of muscle fibers counted (%).

[5] = system: adductor magnus muscle arterioles; assay: hindlimb ischemia model, arteriole density (α-SMA) in adductor magnus muscle; format: in vivo, C57BL/6 wild-type mice; settings: two weeks after surgery, sustained-release formulation (Bolus: bolus 29-mer)
Method: The small artery densities (α-SMA positive cells surrounding the whole circumference of the vessel) were measured and images were taken from 10 randomly-selected areas of adductor magnus muscle (200× magnification) in each sample, and blinded quantification was performed in triplicate by manually counting within each section; values from five sections were then averaged and expressed as arteriole density per mm^2.
as §1
To investigate the arteriogenic effect of the present sustained-release formulation, adductor magnus muscles (located at the same level as femoral artery excision and in which arteriogenesis responsible for establishing collateral circulation is expected to be found) were harvested from animals in each experimental condition, two weeks after the surgery. Arterioles in muscle cross sections were identified by immunohistological staining for vascular smooth muscle cells (α-SMA; brown), and nuclei were labeled with hematoxylin; representative photographs were provided in FIG. 5. Quantitative analysis was also performed and the results were summarized in Table 3, and the data were expressed as α-SMA-positive arterioles per mm^2 in the peri-injury region.

[6] = system: aortic ring explants; assay: rat aortic ring sprouting assay (ex vivo neovessel sprouting); format: cell-based; settings: aortic rings cultured with PEDF peptide, in words

SLGAEHRTESVIHRALYYDLITNPDIHST [Mo 29-mer, synthetic peptide derived from mouse PEDF]
Neovessel Sprouting Fold [1]: 6.1* fold of untreated aortic ring | BrdU Labeling Index (%) [2]: 33.2 ± 6.6 %

FGF2: well-known angiogenic factor used as positive control, 20 ng/ml [reference compound]
Neovessel Sprouting Fold [1]: 3.5* fold of untreated aortic ring | Neovessel Sprouting Fold ([1]; listed as FGF-2): ~3.5 fold of untreated aortic ring

EQRTESIIHRALYYDLIS [18-mer, control PEDF peptide without the SLGA residues, reference compound]
Ischemic/Non-ischemic Perfusion Ratio (%) 7 days ([3]; 7 days after surgery, 50 μl sustained-release alginate gel formulation, 10 μM peptide (Bolus: bolus formulation of 29-mer), single intramuscular injection to gracilis muscle): 23.8 ± 4.5% | Ischemic/Non-ischemic Perfusion Ratio (%) 14 days ([3]; 14 days after surgery, sustained-release formulation (Bolus: bolus 29-mer), single intramuscular injection): 30.3 ± 0.94% | Ischemic/Non-ischemic Perfusion Ratio (%) 21 days ([3]; 21 days after surgery, sustained-release formulation (Bolus: bolus 29-mer), single intramuscular injection): 46.8 ± 4.3% | Ischemic/Non-ischemic Perfusion Ratio (%) 28 days ([3]; 28 days (four weeks) after surgery, sustained-release formulation (Bolus: bolus 29-mer), single intramuscular injection): 52.8 ± 7.4% | Ischemic/Non-ischemic Perfusion Ratio (%) Pre OP ([3]; before surgery (baseline), LDPI): 104.5 ± 2.5% | Ischemic/Non-ischemic Perfusion Ratio (%) Post OP ([3]; immediately after surgery, LDPI): 7.5 ± 0.67% | blood perfusion as compared with blank control ([3]; over 4 weeks after surgery, in words): did not exhibit improved blood perfusion | Centrally nucleated fibers (%) [4]: 20.5 ± 3.3% | Injured Area (%) (necrotic area + fibrotic area, percent of total stained area) [4]: 78.5 ± 5.1% | Arteriole Density per mm^2 (α-SMA-positive arterioles) [5]: 4.0 ± 0.58 per mm^2 | neovessel phenotype by dual immunofluorescence (α-SMA / isolectin B4) [6]: barely detected

SLGAEHRTESVIHRALYYDL [Mo 20-mer, synthetic peptide derived from mouse PEDF]
Neovessel Sprouting Fold [1]: 6.4* fold of untreated aortic ring | BrdU Labeling Index (%) [2]: 31.8 ± 3.1 %
